Laboratory results from patent publication US12157713B2, “Conjugated oligoelectrolytes as antimicrobial agents” (Nanyang Technological University, priority 2018, dated 2024).
Where “and” joins values, the source holds several entries; their conditions need not be identical. Equal entries are not always repeated. Where two headings read alike, the source gives them in different places.

Tests used:
E. coli K12 [1] = assay: MIC by broth microdilution against E. coli K12; assay type: cell-based; details: Escherichia coli, read-out: MIC against E. coli K12
Method: The respective minimum inhibition concentration (MIC) of each COE molecule was determined using a broth microdilution method. Briefly, COEs were diluted via a 2-fold dilution series in 100 μL of either Muller Hinton Broth (MHB) for E. coli and S. aureus or Brain Heart Infusion Broth (BHI) for E. faecalis in a 96-well plate to achieve the desired final concentration. Subsequently, each well was inoculated with 100 μL of 1×10^6 colony forming units (CFU) mL^−1 of the respective microorganism in MHB for E. coli or BHI for E. faecalis to achieve an inoculum density of 5×10^5 CFU mL^−1. The plates were then incubated at 37° C. with shaking (200 rpm) for 18 hrs. […] The results were obtained in triplicate.
The MIC values of COE-D4, COE-D6 and COE-D8 against the reference strain E. coli K12, pathogenic E. coli UT189, and the Gram positive pathogen Enterococcus faecalis OG1RF were determined using a broth microdilution method as described in the general method above. The MICs for E. coli K12 were determined to be 128, 16, and 4 μg mL^−1 for COE-D4, COE-D6, and COE-D8, respectively (FIG. 5a). […] This is not surprising as these two organisms differ in the capsular polysaccharides that they expressed, which are known to hinder the uptake of antimicrobials and mitigate their potency (M. A. Campos, et al., Infect. Immun. 2004, 72, 7107-7114). A K-type capsid comprising α2-8-linked sialic acid is excreted by UT189 and is known to be an important virulence factor for this organism (C. Whitfield, et al., Mol. Microbiol. 1999, 31, 1307-1319; G. G. Anderson, et al., Infect. Immun. 2010, 78, 963-975).

[2] = system: Staphylococcus aureus MRSA ATCC 43300; assay: Single-dose growth inhibition, Sa; assay type: cell-based
Method: (§1) Inhibition of bacterial growth was determined by measuring the absorbance at 600 nm (OD600), using a Tecan M1000 Pro monochromator plate reader. Growth inhibition was calculated for each well, relative to the reference growths determined from a negative control (media only) and positive control (bacteria without inhibitors) incubated in the same plate. A single dose of 32 μg/mL of COE (final concentration) was used for each test.
(§2) Percentage growth inhibition of an individual sample was calculated based on growth in a reference well determined from negative controls (media only) and positive controls (bacterial/fungal media without inhibitors). Negative inhibition values indicate that the growth rate (or OD600) is higher compared to the reference growth (bacteria/fungi only, set to 0% inhibition). The growth rates for all bacteria and fungi may vary at −/+10%, which were within the reported normal distribution of bacterial/fungal growth. Any significant variations (or outliers/hits) were identified by the modified Z-Score, and the active compounds were selected by a combination of inhibition values and Z-Score.
(§3) A M(i) value of >|2.5| (absolute) would classify the sample as outliers or hits. Active samples were denoted as compounds with inhibition values equal to or above 80% and absolute Z-Score above |2.5| for either replicate (n=2 on different plates). Partial active samples were denoted as compounds with inhibition values from 50% to <80%, or absolute Z-Score below |2.5|.

[3] = system: Klebsiella pneumoniae MDR ATCC 700603; assay: Single-dose growth inhibition, Kp; assay type: cell-based
Method: as §1, §2, §3

[4] = system: Escherichia coli FDA control ATCC 25922; assay: Single-dose growth inhibition, Ec; assay type: cell-based
Method: as §1, §2, §3

[5] = system: Pseudomonas aeruginosa ATCC 27853; assay: Single-dose growth inhibition, Pa; assay type: cell-based
Method: as §1, §2, §3

[6] = system: Acinetobacter baumannii ATCC 19606; assay: Single-dose growth inhibition, Ab; assay type: cell-based
Method: as §1, §2, §3

[7] = system: Candida albicans ATCC 90028; assay: Single-dose growth inhibition, Ca; assay type: cell-based
Method: (§4) Growth inhibition of C. albicans was determined by measuring the absorbance at 530 nm (OD530), while the growth inhibition of C. neoformans was determined by measuring the difference in absorbance between 600 and 570 nm (OD600-570), after the addition of resazurin (0.001 wt. % final concentration) and incubation at 35° C. for additional 2 hrs. The absorbance was measured using a Biotek Synergy HTX plate reader. The relative growth inhibition was calculated for each well, relative to that determined from a negative control (media only) and positive control (bacteria without inhibitors) on the same plate as references. A single dose of 32 μg/mL of COE (final concentration) was used for each test.
as §2, §3

[8] = system: Cryptococcus neoformans var. grubii H99; ATCC 208821; assay: Single-dose growth inhibition, Cn; assay type: cell-based
Method: as §4, §2, §3

[9] = system: organism classes (Gram-negative, Gram-positive and fungi); assay: Single-dose screening summary by organism class; assay type: cell-based; details: 32 μg/mL; 0 = no activity
Method: as §2
Z-Score analysis was carried out to investigate outliers or hits among the samples. The Z-Score was calculated based on the sample population using a modified Z-Score method which accounts for possible skewed sample population. The modified method uses median and MAD ([…]) instead of average and standard deviation, and a scaling factor (Iglewicz, B. & Hoaglin, D. C. Volume 16: How to Detect and Handle Outliers. The ASQC Basic Reference in Quality Control: Statistical Techniques, 1993). The equation to calculate the modified Z-Score value is as follow: […]
as §3

[10] = Solubility in PBS / aqueous solubility; assay type: physicochemical
E. coli K12 [11] = assay: Cellular uptake by E. coli K12 (absorption spectroscopy); assay type: cell-based, Escherichia coli; details: 10 μg/mL COE in PBS, OD=0.5, 2 hrs, room temperature
Method: The relative membrane affinity of COE-D4, COE-D6 and COE-D8 was estimated from the quantity taken up by cells using absorption spectroscopy. After cultures of E. coli K12 were grown in MHB at 37° C., the cells were harvested by centrifugation (6000 rpm, 5 min) and washed twice with PBS solution (pH=7.2). The cells were then resuspended in PBS and with the density adjusted to OD=1.0. Thereafter, 5 mL of this cell suspension was mixed with an equal volume of 20 μg/mL of COE in PBS to achieve a final concentration of 10 μg/mL (in triplicates). After exposure to COEs for 2 hrs at room temperature and with shaking (200 rpm), the cells were removed by centrifugation and the supernatant was collected for absorbance scans to quantify the remaining COE in the supernatant. The uptake quantity was estimated by comparing the absorbance of the supernatant to the corresponding control COE solution (i.e. 10 μg/mL in PBS). The procedure for uptake measurements at the lower temperature is similar to the one described above, but with the exposure to COEs and centrifugation occurring at 4° C. instead of room temperature
The effect of molecular structures of the COEs on relative membrane affinity, estimated from the amount taken up by E. coli K12, was measured by absorption spectroscopy (FIG. 8a-c). These experiments utilised cell suspensions (OD=0.5) incubated for 2 hrs with 10 μg mL^−1 of various COE. Cells were removed by centrifugation, and the amount of uncomplexed COE was determined from the optical absorption spectra. The longest molecule, COE-D8, achieved the highest uptake in bacteria (72%). In contrast, only 3% of COE-D4 was absorbed while the uptake for COE-D6 was 16% (Table 1a).
Parallel experiments were carried out at 4° C. […] As a result of the reduced fluidity of cellular membrane at lower temperature, the uptake decreased to around 1% for COE-D4, 5% for COE-D6, and 34% for COE-D8.

[12] = K12, broth microdilution, MHB, 18 hrs
[13] = 32 μg/mL single dose, n=2, read-out: Growth inhibition Sa
[14] = ATCC700603, 32 μg/mL single dose, n=2, read-out: Growth inhibition Kp
[15] = ATCC25922, 32 μg/mL single dose, n=2, read-out: Growth inhibition Ec
[16] = ATCC27853, 32 μg/mL single dose, n=2, read-out: Growth inhibition Pa
[17] = ATCC19606, 32 μg/mL single dose, n=2, read-out: Growth inhibition Ab
[18] = ATCC90028, 32 μg/mL single dose, n=2, read-out: Growth inhibition Ca
[19] = ATCC208821, 32 μg/mL single dose, n=2, read-out: Growth inhibition Cn
[20] = aqueous buffer, in PBS, read-out: Solubility in PBS

SMILES	MIC (E. coli K12 [1]; K12, 18 h) [µg/mL]	inhibition at 32 µg/mL ([2]; read-out: Growth inhibition Sa) [%]	inhibition at 32 µg/mL ([3]; ATCC700603, read-out: Growth inhibition Kp) [%]	inhibition at 32 µg/mL ([4]; ATCC25922, read-out: Growth inhibition Ec) [%]	inhibition at 32 µg/mL ([5]; ATCC27853, read-out: Growth inhibition Pa) [%]	inhibition at 32 µg/mL ([6]; ATCC19606, read-out: Growth inhibition Ab) [%]	inhibition at 32 µg/mL ([7]; ATCC90028, read-out: Growth inhibition Ca) [%]	inhibition at 32 µg/mL ([8]; ATCC208821, read-out: Growth inhibition Cn) [%]	Activity: number of organism classes the compound has been found active against [9]	MIC (E. coli K12 [1]; [12]) [µg/mL]	inhibition at 32 µg/mL [2, 13] [%]	inhibition at 32 µg/mL [3, 14] [%]	inhibition at 32 µg/mL [4, 15] [%]	inhibition at 32 µg/mL [5, 16] [%]	inhibition at 32 µg/mL [6, 17] [%]	inhibition at 32 µg/mL [7, 18] [%]	inhibition at 32 µg/mL [8, 19] [%]	solubility [10, 20] [µg/mL]	solubility ([10]; aqueous solution, read-out: aqueous solubility) [µg/mL]	Uptake by E. coli K12 (E. coli K12 [11])
C[N+](C)(C)CC[N+](C)(C)CCCCOc1ccc(/C=C/c2ccc(OCCCC[N+](C)(C)CC[N+](C)(C)C)cc2)cc1 [COE-D42]	128	> 80	< 50	< 50	< 50	< 50	< 50	< 50	1											
C[N+](C)(C)CC[N+](C)(C)CCCCCCOc1ccc(/C=C/c2ccc(OCCCCCC[N+](C)(C)CC[N+](C)(C)C)cc2)cc1 [COE-D62]									3	16	> 80	> 80	> 80	< 50	> 80	< 50	> 80			
C[N+](C)(C)CC[N+](C)(C)CCCCCCCCOc1ccc(/C=C/c2ccc(OCCCCCCCC[N+](C)(C)CC[N+](C)(C)C)cc2)cc1 [COE-D82]									3	32	> 80	50 to 80	> 80	> 80	50 to 80	> 80	> 80			
C[N+](C)(C)CCCCOc1ccc(/C=C/c2ccc(/C=C/c3ccc(OCCCC[N+](C)(C)C)cc3)cc2)cc1 [COE-T4]									2	32	> 80	< 50	< 50	< 50	50 to 80	> 80	> 80	210	210	75±5% and 80%
C[N+](C)(C)CCCCCCOc1ccc(/C=C/c2ccc(/C=C/c3ccc(OCCCCCC[N+](C)(C)C)cc3)cc2)cc1 [COE-T6]									2	> 16	> 80	< 50	< 50	< 50	< 50	> 80	> 80	76		89%
CN(C)CC[N+](C)(C)CCCCOc1ccc(/C=C/c2ccc(/C=C/c3ccc(OCCCC[N+](C)(C)CCN(C)C)cc3)cc2)cc1 [COE-T42N]									3	8	> 80	< 50	> 80	< 50	> 80	> 80	> 80			
CN(C)CC[N+](C)(C)CCCCCCOc1ccc(/C=C/c2ccc(/C=C/c3ccc(OCCCCCC[N+](C)(C)CCN(C)C)cc3)cc2)cc1 [COE-T62N]									2	64	> 80	< 50	< 50	< 50	> 80	> 80	> 80			
